The assay concerns desumoylation. Kind of assay: stabilization of SUMOylated proteins in lysates from HA-SUMO transfected HEK 293T cells. The class given is biochemical, human. The note with it: G5 5 μM, C4 300 μM. How it is done:
Untransfected HEK 293T cell lysates were treated with the vehicle alone (DMSO at 1%) or compound and incubated at 37° C. for 2 h. Samples were analyzed by SDS-PAGE and immunoblotting with antibody recognizing K48-linked ubiquitin. D=DMSO; G5=G5 isopeptidase inhibitor 1. A-D show titrations of different compounds (see FIG. 29B for structures). E-H Lysates were prepared from HEK 293T cells expressing HA-SUMO and treated with vehicle alone (DMSO, 1%) or compound. Samples were incubated for the appropriate time and analyzed by SDS-PAGE and immunoblotting with anti-HA antibody. Representative experiments are shown. E. Vehicle control. F. G5, 5 μM; G. C4, 300 μM. H. Quantification of blots as in E-G, N=2 average and range. I-J. Lysates were prepared from HEK 293T cells expressing HA-Ub and treated with either vehicle alone (1% DMSO) or compound at 37° C. for 3 h. Samples were analyzed by SDS-PAGE and immunoblotting with anti-HA antibody. I. A representative experiment. J. Quantitation of experiments in I (N=2 average and range shown). […]
Similar effects were observed when the endogenous K48-linked ubiquitin pool was monitored in lysates prepared from wild-type HEK 293T cells (FIG. 37A-D). Unfortunately, K63-linked ubiquitin could not be detected in these lysates. The ability of C4 to stabilize SUMOylated proteins in lysates from HA-SUMO transfected HEK 293T cells was also assessed.

We go through one compound from patent US20160090351A1, “INHIBITORS OF DEUBIQUITINATING PROTEASES” (BRANDEIS UNIVERSITY, priority 2013, published 2016).

Regarding `O=C1/C(=C/c2ccc([N+](=O)[O-])cc2)CS(=O)(=O)C/C1=C\c1ccc([N+](=O)[O-])cc1` [Compound G5, reference compound], the inhibition of desumoylation entry is “Neither G5 nor C4 inhibited desumoylation”.
